Values after ≈ are worked out from the molar mass of the structure shown.
How the values were obtained:
Format in all cases: cell-based
[1] = test system: Pseudomonas aeruginosa strain ATCC 27853; assay: Antibacterial activity evaluation test (MIC), broth microdilution, strain ATCC 27853; settings: for MIC: Pseudomonas aeruginosa, ATCC27853, read-out: MIC Pseudomonas aeruginosa strain ATCC 27853; for MIC Pseudomonas aeruginosa strain ATCC 27853: cation-adjusted Mueller-Hinton medium supplemented with 20 M of apotransferrin, 35° C., 16 to 20 hours
Method: (§1) The minimum inhibitory concentration (MIC) was measured according to the Clinical and Laboratory Standards Institute (CLSI) standard method by using the following broth microdilution method.
(§2) As bacteria, a Pseudomonas aeruginosa strain ATCC 27853, a Pseudomonas aeruginosa AmpC derepression mutant strain S-3028, and a Pseudomonas aeruginosa IMP-1-producing strain S-2838 were used.
(§3) The Pseudomonas aeruginosa AmpC-derepression mutant strain S-3028 or the Pseudomonas aeruginosa IMP-1-producing strain S-2838 was cultured on a Mueller Hinton agar medium overnight, thereby preparing test bacterial cells. The obtained test bacterial cells were scraped off, suspended to yield 0.5 McFarland equivalence, and diluted 10-fold to obtain an inoculum. A cation-adjusted Mueller Hinton medium containing a test compound was inoculated with 0.0005 mL of the inoculum, and the cells were cultured at 35° C. for 16 to 20 hours. The minimum drug concentration at which the growth of bacteria was not visually observed was defined as MIC.
The MIC of the Pseudomonas aeruginosa ATCC strain 27853 was measured in the same manner as described above by using a cation-adjusted Mueller-Hinton medium supplemented with […] of apotransferrin as a final concentration.

[2] = test system: Pseudomonas aeruginosa AmpC derepression mutant strain S-3028; assay: Antibacterial activity evaluation test (MIC), broth microdilution, AmpC derepression mutant strain S-3028; settings: for MIC: Pseudomonas aeruginosa, read-out: MIC Pseudomonas aeruginosa strain S-3028; for MIC Pseudomonas aeruginosa strain S-3028: AmpC derepression mutant, cation-adjusted Mueller Hinton medium, 35° C., 16 to 20 hours
Method: as §1, §2, §3

[3] = test system: Pseudomonas aeruginosa IMP-1-producing strain S-2838; assay: Antibacterial activity evaluation test (MIC), broth microdilution, IMP-1-producing strain S-2838; settings: for MIC: Pseudomonas aeruginosa, read-out: MIC Pseudomonas aeruginosa strain S-2838; for MIC Pseudomonas aeruginosa strain S-2838: IMP-1-producing strain, cation-adjusted Mueller Hinton medium, 35° C., 16 to 20 hours
Method: as §1, §2, §3

Compound	MIC [1] [µg/mL]	MIC [2] [µg/mL]	MIC [3] [µg/mL]	MIC Pseudomonas aeruginosa strain ATCC 27853 [1] [µg/mL]	MIC Pseudomonas aeruginosa strain S-3028 [2] [µg/mL]	MIC Pseudomonas aeruginosa strain S-2838 [3] [µg/mL]
CC(C)(O/N=C(\C(=O)N[C@@H]1C(=O)N2C[C@](SCCNC(=O)c3ccc(O)c(O)c3Cl)(C(=O)O)SC12)c1csc(N)n1)C(=O)O (stereo partly drawn) [Example 18, (3R,5R,6R)-6-((Z)-2-(2-aminothiazol-4-yl)-2-(((2-carboxypropan-2-yl)oxy)imino)acetamide)-3-((2-(2-chloro-3,4-dihydroxybenzamide)ethyl)thio)-7-oxo-4-thia-1-azabicyclo[3.2.0]heptane-3-carboxylic acid]	0.125 (≈ 0.181 µM)	2 (≈ 2.9 µM)	4 (≈ 5.8 µM)			
CC(C)(O/N=C(\C(=O)N[C@@H]1C(=O)N2C[C@](SC3CN(C(=O)/C(=N\O)c4ccc(O)c(O)c4Cl)C3)(C(=O)O)SC12)c1csc(N)n1)C(=O)O (stereo partly drawn) [Example 5, (3R,5R,6R)-6-((Z)-2-(2-aminothiazol-4-yl)-2-(((2-carboxypropan-2-yl)oxy)imino)acetamide)-3-((1-((Z)-2-(2-chloro-3,4-dihydroxyphenyl)-2-(hydroxyimino)acetyl)azetidin-3-yl)thio)-7-oxo-4-thia-1-azabicyclo[3.2.0]heptane-3-carboxylic acid]	≤ 0.0625	8 (≈ 10.8 µM)	16 (≈ 21.5 µM)			
CC(C)(O/N=C(\C(=O)N[C@@H]1C(=O)N2C[C@](SCCNC(=O)/C(=N\NC(N)=O)c3ccc(O)c(O)c3Cl)(C(=O)O)S[C@H]12)c1csc(N)n1)C(=O)O [Example 12]	≤ 0.0625	16 (≈ 20.7 µM)	4 (≈ 5.17 µM)			
CO[C@@H](CNC(=O)C(=O)c1ccc(O)c(O)c1Cl)CS[C@]1(C(=O)O)CN2C(=O)[C@@H](NC(=O)/C(=N\OC(C)(C)C(=O)O)c3csc(N)n3)C2S1 (stereo partly drawn) [Example 6, (3R,5R,6R)-6-((Z)-2-(2-aminothiazol-4-yl)-2-(((2-carboxypropane-2-yl)oxy)imino)acetamide)-3-(((S)-3-(2-(2-chloro-3,4-dihydroxyphenyl)-2-oxoacetamide)-2-methoxypropyl)thio)-7-oxo-4-thia-1-azabicyclo[3.2.0]heptane-3-carboxylic acid]	0.25 (≈ 0.328 µM)	4 (≈ 5.25 µM)	2 (≈ 2.63 µM)			
CC(C)(O/N=C(\C(=O)N[C@@H]1C(=O)N2C[C@](SCCNC(=O)/C(=N\NC(N)=O)c3ccc(O)c(O)c3)(C(=O)O)S[C@H]12)c1csc(N)n1)C(=O)O [Example 14, (3R,5R,6R)-6-((Z)-2-(2-aminothiazol-4-yl)-2-(((2-carboxypropane-2-yl)oxy)imino)acetamide)-3-((2-(2-(2-carbamoylhydrazono)-2-(3,4-dihydroxyphenyl)acetamide)ethyl)thio)-7-oxo-4-thia-1-azabicyclo[3.2.0]heptane-3-carboxylic acid]	0.25 (≈ 0.338 µM)	32 (≈ 43.3 µM)	1 (≈ 1.35 µM)			
CC(C)(O/N=C(\C(=O)N[C@@H]1C(=O)N2C[C@](SCCNC(=O)C(=O)c3ccc(O)c(O)c3)(C(=O)O)S[C@H]12)c1csc(N)n1)C(=O)O [Example 7, (3R,5R,6R)-6-((Z)-2-(2-aminothiazol-4-yl)-2-(((2-carboxypropane-2-yl)oxy)imino)acetamide)-3-((2-(2-(3,4-dihydroxyphenyl)-2-oxoacetamide)ethyl)thio)-7-oxo-4-thia-1-azabicyclo[3.2.0]heptane-3-carboxylic acid]				0.125 (≈ 0.183 µM)	16 (≈ 23.4 µM)	4 (≈ 5.86 µM)
CN(CCS[C@]1(C(=O)O)CN2C(=O)[C@@H](NC(=O)/C(=N\OC(C)(C)C(=O)O)c3csc(N)n3)[C@H]2S1)NC(=O)c1ccc(O)c(O)c1Cl [Example 22, (3R,5R,6R)-6-((Z)-2-(2-aminothiazol-4-yl)-2-(((2-carboxypropan-2-yl)oxy)imino)acetamide)-3-((2-(2-(2-chloro-3,4-dihydroxybenzoyl)-1-methylhydrazinyl)ethyl)thio)-7-oxo-4-thia-1-azabicyclo[3.2.0]heptane-3-carboxylic acid]				0.125 (≈ 0.174 µM)	8 (≈ 11.1 µM)	2 (≈ 2.78 µM)
CC(C)(O/N=C(\C(=O)N[C@@H]1C(=O)N2C[C@](SCCNC(=O)C(=O)c3cc(O)c(O)cc3Cl)(C(=O)O)S[C@H]12)c1csc(N)n1)C(=O)O [Example 23, (3R,5R,6R)-6-((Z)-2-(2-aminothiazol-4-yl)-2-(((2-carboxypropan-2-yl)oxy)imino)acetamide)-3-((2-(2-(2-chloro-4,5-dihydroxyphenyl)-2-oxoacetamide)ethyl)thio)-7-oxo-4-thia-1-azabicyclo[3.2.0]heptane-3-carboxylic acid]				1 (≈ 1.39 µM)	2 (≈ 2.79 µM)	4 (≈ 5.58 µM)
CC(C)(O/N=C(\C(=O)N[C@@H]1C(=O)N2C[C@](SCCNC(=O)/C(=N\N)c3ccc(O)c(O)c3Cl)(C(=O)O)S[C@H]12)c1csc(N)n1)C(=O)O [Example 26, (3R,5R,6R)-6-((Z)-2-(2-aminothiazol-4-yl)-2-(((2-carboxypropan-2-yl)oxy)imino)acetamide)-3-((2-((Z)-2-(2-chloro-3,4-dihydroxyphenyl)-2-hydrazinylideneacetamide)ethyl)thio)-7-oxo-4-thia-1-azabicyclo[3.2.0]heptane-3-carboxylic acid]				0.5 (≈ 0.684 µM)	8 (≈ 10.9 µM)	1 (≈ 1.37 µM)
CN(CCS[C@]1(C(=O)O)CN2C(=O)[C@@H](NC(=O)/C(=N\OC(C)(C)C(=O)O)c3csc(N)n3)[C@H]2S1)C(=O)c1ccc(O)c(O)c1Cl [Example 25, (3R,5R,6R)-6-((Z)-2-(2-aminothiazol-4-yl)-2-(((2-carboxypropan-2-yl)oxy)imino)acetamide)-3-((2-(2-chloro-3,4-dihydroxy-N-methylbenzamide)ethyl)thio)-7-oxo-4-thia-1-azabicyclo[3.2.0]heptane-3-carboxylic acid]	1 (≈ 1.42 µM)	2 (≈ 2.84 µM)	1 (≈ 1.42 µM)			
CC(C)(O/N=C(\C(=O)N[C@@H]1C(=O)N2C[C@](SCCNC(=O)C(=O)c3ccc(O)c(O)c3Cl)(C(=O)O)S[C@H]12)c1csc(N)n1)C(=O)O [Example 1, (3R,5R,6R)-6-((Z)-2-(2-aminothiazol-4-yl)-2-(((2-carboxypropan-2-yl)oxy)imino)acetamide)-3-((2-(2-(2-chloro-3,4-dihydroxyphenyl)-2-oxoacetamide)ethyl)thio)-7-oxo-4-thia-1-azabicyclo[3.2.0]heptane-3-carboxylic acid]				0.125 (≈ 0.174 µM)	128 (≈ 178 µM)	2 (≈ 2.79 µM)
CC(C)(O/N=C(\C(=O)N[C@@H]1C(=O)N2C[C@](SC3CN(C(=O)C(=O)c4ccc(O)c(O)c4Cl)C3)(C(=O)O)S[C@H]12)c1csc(N)n1)C(=O)O [Example 2, (3R,5R,6R)-6-((Z)-2-(2-aminothiazol-4-yl)-2-(((2-carboxypropan-2-yl)oxy)imino)acetamide)-3-((1-(2-(2-chloro-3,4-dihydroxyphenyl)-2-oxoacetyl)azetidin-3-yl)thio)-7-oxo-4-thia-1-azabicyclo[3.2.0]heptane-3-carboxylic acid]				≤0.0625	4 (≈ 5.49 µM)	16 (≈ 21.9 µM)
COC[C@H](CS[C@]1(C(=O)O)CN2C(=O)[C@@H](NC(=O)/C(=N\OC(C)(C)C(=O)O)c3csc(N)n3)[C@H]2S1)NC(=O)/C(=N\NC(N)=O)c1ccc(O)c(O)c1Cl [Example 17, (3R,5R,6R)-6-((Z)-2-(2-aminothiazol-4-yl)-2-(((2-carboxypropane-2-yl)oxy)imino)acetamide)-3-(((R)-2-(2-(2-carbamoylhydrazono)-2-(2-chloro-3,4-dihydroxyphenyl)acetamide)-3-methoxypropyl)thio)-7-oxo-4-thia-1-azabicyclo[3.2.0]heptane-3-carboxylic acid]	≤ 0.0625	8 (≈ 9.78 µM)	8 (≈ 9.78 µM)			
CC(C)(O/N=C(\C(=O)N[C@@H]1C(=O)N2C[C@](SC[C@@H]3COCCN3C(=O)c3ccc(O)c(O)c3Cl)(C(=O)O)S[C@H]12)c1csc(N)n1)C(=O)O [Example 27, (3R,5R,6R)-6-((Z)-2-(2-aminothiazol-4-yl)-2-(((2-carboxypropan-2-yl)oxy)imino)acetamide)-3-((((S)-4-(2-chloro-3,4-dihydroxybenzoyl)morpholin-3-yl)methyl)thio)-7-oxo-4-thia-1-azabicyclo[3.2.0]heptane-3-carboxylic acid]				1 (≈ 1.34 µM)	0.5 (≈ 0.671 µM)	0.5 (≈ 0.671 µM)
CC(C)(O/N=C(\C(=O)N[C@@H]1C(=O)N2C[C@](SCCNNC(=O)c3ccc(O)c(O)c3Cl)(C(=O)O)S[C@H]12)c1csc(N)n1)C(=O)O [Example 28, (3R,5R,6R)-6-((Z)-2-(2-aminothiazol-4-yl)-2-(((2-carboxypropan-2-yl)oxy)imino)acetamide)-3-((2-(2-(2-chloro-3,4-dihydroxybenzoyl)hydradienyl)ethyl)thio)-7-oxo-4-thia-1-azabicyclo[3.2.0]heptane-3-carboxylic acid]				1 (≈ 1.42 µM)	1 (≈ 1.42 µM)	1 (≈ 1.42 µM)

From patent US11208421B2, “2-carboxypenam compound or salt thereof, pharmaceutical composition containing novel 2-carboxypenam compound or salt thereof, and applications thereof” (priority 2017, dated 2021)
